pEC50: −log10 of the molar value.
Target: T1, CFTR (Homo sapiens, UniProt P13569, DEL508-508)
T1 construct: endogenous in cells; host or cells: primary human bronchial epithelial cells from CF subjects (F508del/MF-HBE), differentiated at air-liquid interface
Assay: HBE2 assay: Ussing chamber assay of CFTR-mediated short-circuit currents
Assay type: cell-based
Conditions: F508del/MF-HBE cells, with 44 nM potentiator, 18-24 hours, 20% human serum; for Emax: read-out: HBE2 Max activity (%)
Outline: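 F508del/MF-HBE cultured >14 days at air-liquid interface, mounted in Ussing chambers; transepithelial short-circuit current recorded under voltage clamp (Vhold=0 mV) at 37 °C. CFTR-mediated ISC (μA/cm^2) taken as peak forskolin response relative to steady-state current after inhibition; corrector activity assessed this way.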

T1 sequence (P13569 with tags, fused parts or gaps DEL508-508): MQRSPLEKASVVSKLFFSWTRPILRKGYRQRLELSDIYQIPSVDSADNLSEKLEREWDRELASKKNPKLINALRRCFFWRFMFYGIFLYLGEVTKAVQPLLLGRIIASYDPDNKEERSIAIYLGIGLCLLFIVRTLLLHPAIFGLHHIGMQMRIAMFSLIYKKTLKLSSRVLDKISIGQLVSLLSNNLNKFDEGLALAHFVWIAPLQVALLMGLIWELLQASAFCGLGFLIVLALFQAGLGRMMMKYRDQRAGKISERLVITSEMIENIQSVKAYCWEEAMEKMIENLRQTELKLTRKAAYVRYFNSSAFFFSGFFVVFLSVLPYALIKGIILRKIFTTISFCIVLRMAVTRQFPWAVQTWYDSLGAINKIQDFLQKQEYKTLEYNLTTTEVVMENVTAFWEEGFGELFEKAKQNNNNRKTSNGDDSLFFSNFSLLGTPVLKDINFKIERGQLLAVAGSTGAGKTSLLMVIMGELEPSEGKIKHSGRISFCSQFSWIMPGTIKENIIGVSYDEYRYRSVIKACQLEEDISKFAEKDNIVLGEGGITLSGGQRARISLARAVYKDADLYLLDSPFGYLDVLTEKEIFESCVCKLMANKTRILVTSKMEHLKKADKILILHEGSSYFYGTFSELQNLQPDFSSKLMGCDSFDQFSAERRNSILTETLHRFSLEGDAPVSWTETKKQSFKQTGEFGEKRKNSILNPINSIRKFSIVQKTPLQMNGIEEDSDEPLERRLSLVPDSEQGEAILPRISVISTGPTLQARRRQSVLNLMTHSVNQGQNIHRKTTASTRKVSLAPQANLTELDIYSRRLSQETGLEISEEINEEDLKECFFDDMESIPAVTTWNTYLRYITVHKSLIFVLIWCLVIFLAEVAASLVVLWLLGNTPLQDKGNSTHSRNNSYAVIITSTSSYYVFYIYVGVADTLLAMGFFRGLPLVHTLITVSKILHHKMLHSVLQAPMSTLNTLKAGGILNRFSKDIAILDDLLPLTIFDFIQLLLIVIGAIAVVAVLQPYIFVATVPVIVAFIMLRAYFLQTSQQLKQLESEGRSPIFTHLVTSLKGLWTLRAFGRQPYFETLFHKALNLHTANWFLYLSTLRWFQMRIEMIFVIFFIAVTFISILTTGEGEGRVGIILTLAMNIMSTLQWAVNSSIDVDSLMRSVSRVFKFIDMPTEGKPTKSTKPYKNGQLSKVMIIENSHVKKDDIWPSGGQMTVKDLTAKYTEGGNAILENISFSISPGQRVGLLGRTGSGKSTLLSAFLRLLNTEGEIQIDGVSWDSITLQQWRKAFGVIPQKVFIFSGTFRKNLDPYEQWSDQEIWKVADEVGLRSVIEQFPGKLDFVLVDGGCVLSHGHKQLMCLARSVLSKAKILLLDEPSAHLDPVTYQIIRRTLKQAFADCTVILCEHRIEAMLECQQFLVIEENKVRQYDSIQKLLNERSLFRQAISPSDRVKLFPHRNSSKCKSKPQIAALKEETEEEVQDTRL

SMILES	HBE2 Activity at 3 μM (%) (3 μM)	HBE2 Activity at 3 μM (%) (3 μM corrector)	also measured
CO[C@H](C)CN(C)c1cncc(CN2C(=O)c3cccc(c3)S(=O)(=O)Nc3nc(cc(-c4c(C)cccc4C)n3)OC[C@H]2CC(C)(C)C)n1 [Compound 1633]	+++ (+++ is >60+)	–	–
Cc1cccc(C)c1-c1cc2nc(n1)NS(=O)(=O)c1cccc(c1)C(=O)N(Cc1cnc(C)c(N(C)C3CCC3)n1)[C@H](CC(C)(C)C)CO2 [Compound 1714]	–	+++ (+++ is >60+)	–
COC[C@@H]1CCCN1c1cncc(CN2C(=O)c3cccc(c3)S(=O)(=O)Nc3nc(cc(-c4c(C)cccc4C)n3)OC[C@H]2CC2CCCCC2)n1 [Compound 1867]	–	+++ (+++ is >60+)	–
Cc1cccc(C)c1-c1cc2nc(n1)NS(=O)(=O)c1cccc(c1)C(=O)N(Cc1cncc(N3CCCC4CCC43)n1)[C@H](CCC(C)(C)C)CO2 (stereo in doubt) [Compound 1782]	–	+++ (+++ is >60+)	–
Cc1cccc(C)c1-c1cc2nc(n1)NS(=O)(=O)c1cccc(c1)C(=O)N(Cc1cncc(N3CCOC4CCCC43)n1)[C@H](CC(C)(C)C)CO2 (some centres unmarked) [Compound 1692]	+++ (+++ is >60+)	–	–
Cc1cccc(C)c1-c1cc2nc(n1)NS(=O)(=O)c1cccc(c1)C(=O)N(Cc1cncc(N(C)C3CCC3)n1)[C@H](CC(C)(C)F)CO2 [Compound 1701]	–	–	pEC50: > 6.00; Emax: > 60%
Cc1cccc(C)c1-c1cc2nc(n1)NS(=O)(=O)c1cccc(c1)C(=O)N(Cc1cncc(N3CCCC3C(=O)N(C)C)n1)[C@H](CC(C)(C)C)CO2 (some centres unmarked) [Compound 1660]	+++ (+++ is >60+)	–	–
Cc1cccc(C)c1-c1cc2nc(n1)NS(=O)(=O)c1cccc(c1)C(=O)N(Cc1cncc(N(C)C3CCCC3)n1)[C@H](COC(C)C)CO2 [Compound 1948]	–	+++ (+++ is >60+)	–
Cc1cccc(C)c1-c1cc2nc(n1)NS(=O)(=O)c1cccc(c1)C(=O)N(Cc1cccc(N3CCC[C@@]3(C)CO)n1)[C@H](CC(C)(C)C)CO2 [Compound 1586]	+++ (+++ is >60+)	–	–
Cc1cccc(C)c1-c1cc2nc(n1)NS(=O)(=O)c1cccc(c1)C(=O)N(Cc1ncc(OC(C)C)cn1)[C@H]([C@@H](C)C(C)C)CO2 (stereo in doubt) [Compound 1570]	+ (+ is <300))	–	–
CCCN(C)c1cncc(CN2C(=O)c3cccc(c3)S(=O)(=O)Nc3nc(cc(-c4c(C)cccc4C)n3)OC[C@H]2CC(C)(C)C)n1 [Compound 1694]	+++ (+++ is >60+)	–	–
Cc1cccc(C)c1-c1cc2nc(n1)NS(=O)(=O)c1cccc(c1)C(=O)N(Cc1cncc(N(C)C3CCC3)n1)[C@@H]1CN(C3CC4(CCCC4)C3)C[C@H]1O2 [Compound 1323, (3R,7R)-8-[[6-[Cyclobutyl(methyl)amino]pyrazin-2-yl]methyl]-19-(2,6-dimethylphenyl)-15,15-dioxo-5-spiro[3.4]octan-2-yl-2-oxa-15λ^6-thia-5,8,16,18,21-pentazatetracyclo[15.3.1.110,14.03,7]docosa-1(20),10,12,14(22),17(21),18-hexaen-9-one]	–	++ (++ is 30-60%)	–
Cc1cccc(C)c1-c1cc2nc(n1)NS(=O)(=O)c1cccc(c1)C(=O)N(Cc1cncc(N(C)CC(C)(C)C)n1)[C@H](CCC(C)C)CO2 [Compound 1795]	–	+++ (+++ is >60+)	–
Cc1cccc(C)c1-c1cc2nc(n1)NS(=O)(=O)c1cccc(c1)C(=O)N(Cc1coc(N(C)CC3CCC3)n1)[C@H](CC(C)(C)C)CO2 [Compound 1646]	+++ (+++ is >60+)	–	–
CC[C@@H](C)Oc1cnc(CN2C(=O)c3cccc(c3)S(=O)(=O)Nc3nc(cc(-c4c(C)cccc4C)n3)OC[C@H]2CC2(C)CC2)nc1 [Compound 1555]	+++ (+++ is >60+)	–	–
Cc1cccc(C)c1-c1cc2nc(n1)NS(=O)(=O)c1cccc(c1)C(=O)N(Cc1ncc(OC(C)C)cn1)[C@H]([C@H](C)C1CC1)CO2 (stereo in doubt) [Compound 1558]	+++ (+++ is >60+)	–	–
CCN(CC)c1cncc(CN2C(=O)c3cccc(c3)S(=O)(=O)Nc3nc(cc(-c4c(C)cccc4C)n3)OC[C@H]2CC(C)(C)C)n1 [Compound 1697]	+++ (+++ is >60+)	–	–
Cc1cccc(C)c1-c1cc2nc(n1)NS(=O)(=O)c1cccc(c1)C(=O)N(Cc1cncc(N(C)C3CCC3)n1)[C@@H]1CN(CC(C)(C)C)CC1O2 (stereo in doubt) [Compound 1740]	–	++ (++ is 30-60%)	–

SMILES	HBE2 Activity at 3 μM (%) (3 μM)	HBE2 Activity at 3 μM (%) (3 μM corrector)	also measured
Cc1cccc(C)c1-c1cc2nc(n1)NS(=O)(=O)c1cccc(c1)C(=O)N(Cc1cncc(N3CCC[C@H]3C(C)C)n1)[C@H](CC1CCCC1)CO2 [Compound 1846]	–	+++ (+++ is >60+)	–
Cc1cccc(C)c1-c1cc2nc(n1)NS(=O)(=O)c1cccc(c1)C(=O)N(Cc1cncc(N(C)CC3(C)CC3)n1)[C@H](CC(C)(C)C)CO2 [Compound 1757]	–	+++ (+++ is >60+)	–
CCc1ccnc(CN2C(=O)c3cccc(c3)S(=O)(=O)Nc3nc(cc(-c4c(C)cccc4C)n3)OC[C@H]2CC(C)(C)C)n1 [Compound 1302, (11R)-6-(2,6-Dimethylphenyl)-11-(2,2-dimethylpropyl)-12-[(4-ethylpyrimidin-2-yl)methyl]-2,2-dioxo-9-oxa-2λ^6-thia-3,5,12,19-tetrazatricyclo[12.3.1.14,8]nonadeca-1(18),4,6,8(19),14,16-hexaen-13-one]	+++ (+++ is >60+)	–	–
Cc1cccc(C)c1-c1cc2nc(n1)NS(=O)(=O)c1cccc(c1)C(=O)N(Cc1cncc(N3CCC34CCC4)n1)[C@H](CC(C)(C)C)CO2 [Compound 1604]	–	–	pEC50: > 6.00; Emax: > 60%
COC(=O)N1CC2CCN(c3cncc(CN4C(=O)c5cccc(c5)S(=O)(=O)Nc5nc(cc(-c6c(C)cccc6C)n5)OC[C@H]4CC(C)(C)C)n3)C2C1 (some centres unmarked) [Compound 1681]	+++ (+++ is >60+)	–	–
CO[C@H](C)CN(C)c1cncc(CN2C(=O)c3cccc(c3)S(=O)(=O)Nc3nc(cc(-c4c(C)cccc4C)n3)OC[C@H]2CC(C)(C)C)n1 (stereo in doubt) [Compound 1634]	+++ (+++ is >60+)	–	–
Cc1cccc(C)c1-c1cc2nc(n1)NS(=O)(=O)c1cccc(c1)C(=O)N(Cc1cncc(N3CCC[C@@H]4CC[C@@H]43)n1)[C@H](CC(C)(C)F)CO2 [Compound 1840]	–	+++ (+++ is >60+)	–
CNC(=O)CC1CCCN1c1cncc(CN2C(=O)c3cccc(c3)S(=O)(=O)Nc3nc(cc(-c4c(C)cccc4C)n3)OC[C@H]2CC(C)(C)C)n1 (some centres unmarked) [Compound 1657]	+++ (+++ is >60+)	–	–
Cc1cccc(C)c1-c1cc2nc(n1)NS(=O)(=O)c1cccc(c1)C(=O)N(Cc1cncc(N(C)C3CCC3)n1)[C@H](CC1CC3(CCC3)C1)CO2 [Compound 1682]	+++ (+++ is >60+)	–	–
Cc1cccc(C)c1-c1cc2nc(n1)NS(=O)(=O)c1cccc(c1)C(=O)N(Cc1ncc(OC3CCC3)cn1)[C@H](CC1(C)CC1)CO2 [Compound 1576]	+++ (+++ is >60+)	–	–
Cc1cccc(C)c1-c1cc2nc(n1)NS(=O)(=O)c1cccc(c1)C(=O)N(Cc1cncc(N3[C@H](C)C[C@@H]3C)n1)[C@H](CC(C)(C)C)CO2 [Compound 1728]	–	+++ (+++ is >60+)	–
COCC1CC2(CCN2c2cncc(CN3C(=O)c4cccc(c4)S(=O)(=O)Nc4nc(cc(-c5c(C)cccc5C)n4)OC[C@H]3CC(C)(C)C)n2)C1 (some centres unmarked) [Compound 1707]	+++ (+++ is >60+)	–	–
Cc1cccc(C)c1-c1cc2nc(n1)NS(=O)(=O)c1cccc(c1)C(=O)N(Cc1cncc(N(C)[C@@H]3CC4COCC43)n1)[C@H](CC(C)(C)C)CO2 (stereo in doubt) [Compound 1676]	+++ (+++ is >60+)	–	–
CCCOc1cnc(CN2C(=O)c3cccc(c3)S(=O)(=O)Nc3nc(cc(-c4c(C)cccc4C)n3)OC[C@H]2CC2(C)CCC2)nc1 [Compound 1641]	+++ (+++ is >60+)	–	–
Cc1cccc(C)c1-c1cc2nc(n1)NS(=O)(=O)c1cccc(c1)C(=O)N(Cc1cncc(N3CCO[C@@H](C)[C@H]3C)n1)[C@H](CC(C)(C)C)CO2 [Compound 1761]	–	+++ (+++ is >60+)	–
Cc1cccc(C)c1-c1cc2nc(n1)NS(=O)(=O)c1cccc(c1)C(=O)N(Cc1cccc([C@@H](C)N3CCCC3)n1)[C@H](CC(C)(C)C)CO2 [Compound 1589]	++ (++ is 30-60%)	–	–
Cc1cccc(C)c1-c1cc2nc(n1)NS(=O)(=O)c1cccc(c1)C(=O)N(Cc1cncc(N3CCC4NC(=O)CC43)n1)[C@H](CC(C)(C)C)CO2 (stereo in doubt) [Compound 1622]	++ (++ is 30-60%)	–	–
Cc1cccc(C)c1-c1cc2nc(n1)NS(=O)(=O)c1cccc(c1)C(=O)N(Cc1cnc(C)c(N(C)CC(C)C)n1)[C@H](CC(C)(C)C)CO2 [Compound 1322, (11R)-6-(2,6-Dimethylphenyl)-11-(2,2-dimethylpropyl)-12-[[6-[isobutyl(methyl)amino]-5-methyl-pyrazin-2-yl]methyl]-2,2-dioxo-9-oxa-2λ^6-thia-3,5,12,19-tetrazatricyclo[12.3.1.14,8]nonadeca-1(18),4(19),5,7,14,16-hexaen-13-one]	–	+++ (+++ is >60+)	–

Reference: patent publication US20240150377A1, “MODULATORS OF CYSTIC FIBROSIS TRANSMEMBRANE CONDUCTANCE REGULATOR” (VERTEX PHARMACEUTICALS INCORPORATED, priority 2020, published 2024)
